# From patent US20020009799A1, “Isolation and purification of nucleic acids” (priority 1999, published 2002)
# Key:
# E. coli cells = test: Lysis of suspended bacterial cells by lysis buffers with 0.1 to 1% SDS; type: cell-based; details: lysis buffer with 1% OT-100, 0.2M NaOH
# Procedure: 0.25 grams of pelleted E. coli cells (the cells contained an 8.165 kB plasmid called VR1412) were suspended in the suspension buffer from a Concert Plasmid DNA Purification Kit (Life Technologies, Inc., Bethesda, Md.). In place of the lysis buffer provided in the Concert Plasmid DNA Purification Kit (i.e., 1% SDS in 200 mM NaOH), a series of ten different lysis buffers were evaluated. Each lysis buffer included 1% OT-100 (a hydrophobic surfactant), 0.2M NaOH and from 0.1 to 1% SDS. The lysis buffers were used to lyse the suspended bacterial cells, and the lysed suspension was then neutralized with the neutralization buffer provided in the Concert Plasmid DNA Purification Kit. The resulting plasmid DNA preparation was precipitated by the addition of isopropanol (IPA) followed by centrifugation.
# The best result was obtained with 1% OT-100 and 0.4% SDS, that combined a relatively low endotoxin (LAL) level and a high plasmid concentration.
# [1] = in water; cited from earlier work
# [2] = bracketed value; cited from earlier work
molecule,measurement,setting,value
"CCCCCCCCCCCCOS(=O)(=O)[O-].[Na+] [SDS, Sodium dodecyl sulfate]",minimum concentration of SDS required to achieve most effective bacterial lysis,E. coli cells,0.4%
"CCCCCCCCCCCCCOC(=O)CC(C(=O)OCCCCCCCCCCCCC)S(=O)(=O)O.[Na] (stereo not drawn) [TR-70, sodium bistridecyl sulfosuccinate]",Solubility,[1],0.15%
Triton ® X-100,Dynamic Surface Tension [6 bubbles/sec],[2],— (42.2) dynes/cm
